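Cells were grown in 96-well plates and exposed to each compound for 48 hours at five concentrations; endpoints were interpolated linearly between bracketing concentrations, or set to the highest concentration if not reached. GI50: concentration for 50% inhibition of growth.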 Active and inactive are the calls of the source. No stated cut-off is given here; in the data, active = GI50 up to about 1.1 µM and inactive = higher.
Assays:
Experiment in all cases: inhibition of tumour cell growth, NCI panel, 48 h
[1] = system: SK-OV-3
[2] = system: M14
[3] = system: RPMI-8226
[4] = system: DMS-273
[5] = system: K562
[6] = system: NCI-H522
[7] = system: SNB-78
[8] = system: UO-31
[9] = system: TK-10
[10] = system: MOLT-4
[11] = system: HL-60
[12] = system: RXF 393
[13] = system: UACC-257
[14] = system: A549
[15] = system: SF-539
[16] = system: CCRF-CEM
[17] = system: DMS-114
[18] = system: LXFL 529
[19] = system: DLD-1
[20] = system: A498
[21] = system: HCC 2998
[22] = system: SF-268
[23] = system: HCT-15
[24] = system: KM12
[25] = system: OVCAR-3
[26] = system: SF-295
[27] = system: OVCAR-4
[28] = system: U-251
[29] = system: SW-620
[30] = system: COLO 205
[31] = system: KM-20L2
[32] = system: SK-MEL-28
[33] = system: NCI-H460
[34] = system: SK-MEL-5
[35] = system: HCT-116
[36] = system: HOP-62
[37] = system: SR
[38] = system: SK-MEL-2
[39] = system: HOP-92
[40] = system: M19-MEL
[41] = system: Malme-3M
[42] = system: ACHN
[43] = system: LOX IMVI
[44] = system: SNB-75
[45] = system: 786-0
[46] = system: IGROV-1
[47] = system: EKVX
[48] = system: HOP-18
[49] = system: SN12C
[50] = system: CAKI-1
[51] = system: SNB-19
[52] = system: HT-29
[53] = system: OVCAR-5
[54] = system: NCI-H226
[55] = system: OVCAR-8
[56] = system: UACC-62
[57] = system: NCI-H23

With `N=C1c2ccccc2C(=O)c2c(NCCNCCO)ccc(O)c21` the GI50 [1] was 6.55 µM (inactive), the GI50 [2] was 10.3 µM (inactive) and the GI50 [3] was 7.19 µM (inactive). The GI50 [4] was 5.57 µM (inactive), the GI50 [5] was 3.64 µM (inactive) and the GI50 [6] was 3.4 µM (inactive). The GI50 [7] was 18.8 µM (inactive), the GI50 [8] was 7.83 µM (inactive) and the GI50 [9] was 11.9 µM (inactive). For the same compound, the GI50 [10] was 1.88 µM (inactive), the GI50 [11] was 6.85 µM (inactive) and the GI50 [12] was 4.66 µM (inactive). For the same compound, the GI50 [13] was 13.9 µM (inactive), the GI50 [14] was 6.3 µM (inactive) and the GI50 [15] was 4.73 µM (inactive). The GI50 [16] was 9.62 µM (inactive), the GI50 [17] was 3.93 µM (inactive) and the GI50 [18] was 6.5 µM (inactive). The GI50 [19] was 5.92 µM (inactive), the GI50 [20] was 13.7 µM (inactive) and the GI50 [21] was 9.42 µM (inactive). For the same compound, the GI50 [22] was 3.3 µM (inactive), the GI50 [23] was 25.5 µM and the GI50 [24] was 6.92 µM (inactive). For the same compound, the GI50 [25] was 12.9 µM (inactive), the GI50 [26] was 12.5 µM (inactive) and the GI50 [27] was 23.4 µM (inactive). The GI50 [28] was 4.46 µM (inactive), the GI50 [29] was 3.1 µM (inactive) and the GI50 [30] was 4.73 µM (inactive). For the same compound, the GI50 [31] was 5 µM (inactive), the GI50 [32] was 8.15 µM (inactive) and the GI50 [33] was 5.06 µM (inactive). The GI50 [34] was 7.03 µM (inactive), the GI50 [35] was 3.27 µM (inactive) and the GI50 [36] was 4.91 µM (inactive). For the same compound, the GI50 [37] was 0.579 µM (active), the GI50 [38] was 17.1 µM (inactive) and the GI50 [39] was 24.9 µM (inactive). The GI50 [40] was 5.55 µM (inactive), the GI50 [41] was 13.7 µM (inactive) and the GI50 [42] was 3.23 µM (inactive). The GI50 [43] was 4.15 µM (inactive), the GI50 [44] was 15.6 µM (inactive) and the GI50 [45] was 4.73 µM (inactive). The GI50 [46] was 5.38 µM (inactive), the GI50 [47] was 12 µM (inactive) and the GI50 [48] was 11.5 µM (inactive). The GI50 [49] was 4.83 µM (inactive), the GI50 [50] was 10.3 µM (inactive) and the GI50 [51] was 8.24 µM (inactive). For the same compound, the GI50 [52] was 9.02 µM (inactive), the GI50 [53] was 16 µM (inactive) and the GI50 [54] was 9.84 µM (inactive). For the same compound, the GI50 [55] was 4.72 µM (inactive), the GI50 [56] was 6.4 µM (inactive) and the GI50 [57] was 9.16 µM (inactive).

From ChEMBL document CHEMBL1201862, “PubChem BioAssay data set” (2004)
